Activity calls are given as the source filed them.
Experiments:
Format in all cases: functional, cell-based
HT-29 = experiment: Cytotoxicity against human HT-29 cells
A549 = experiment: Cytotoxicity against human A549 cells
P388 = experiment: Cytotoxicity against mouse P388 cells
SK-MEL-28 = experiment: Cytotoxicity against human SK MEL28 cells

Measured: Activity

CC(=O)O[C@H]1CC/C(C)=C\[C@@H]2OC(=O)[C@H](C)[C@@]2(O)[C@@H](OC(C)=O)[C@H]2[C@]3(CC[C@H](OC(C)=O)[C@]12C)CO3
inactive: all assays above

CC(=O)O[C@H]1CC[C@]2(CO2)[C@@H]2[C@H](OC(C)=O)[C@@]3(O)[C@H](/C=C(/C)[C@H](O)C[C@H](OC(C)=O)[C@@]12C)OC(=O)[C@@H]3C
inactive: all assays above

C=C1[C@H](Cl)[C@@H]2OC(=O)[C@H](C)[C@]23O[C@@H]1[C@H](OC(C)=O)[C@H](OC(C)=O)[C@@]1(C)[C@@H](OC(C)=O)CC[C@]2(CO2)[C@@H]1[C@@H]3OC(C)=O
inactive: all assays above

CC(=O)O[C@H]1CC[C@]2(CO2)[C@@H]2[C@H](OC(C)=O)[C@@]3(O)[C@H](/C=C(/C)[C@H](OC(C)=O)C[C@H](OC(C)=O)[C@@]12C)OC(=O)[C@@H]3C
inactive: all assays above

C=C1CC[C@H](OC(C)=O)[C@]2(C)[C@@H](OC(C)=O)C[C@@H](OC(C)=O)/C(C)=C\[C@@H]3OC(=O)[C@H](C)[C@]3(O)[C@@H](OC(C)=O)[C@@H]12
inactive: all assays above

C=C1CC[C@H](OC(C)=O)[C@]2(C)[C@@H](OC(C)=O)C[C@@H](O)/C(C)=C\[C@@H]3OC(=O)[C@H](C)[C@]3(O)[C@@H](OC(C)=O)[C@@H]12
inactive: all assays above

C=C1[C@H]2C[C@@H](OC(C)=O)[C@@]3(C)[C@@H](OC(C)=O)CC[C@]4(CO4)[C@@H]3[C@@H](OC(C)=O)[C@]3(O2)[C@@H](C)C(=O)O[C@H]3[C@H]1Cl
inactive: all assays above

C=C1CC[C@H](OC(C)=O)[C@@]2(C)[C@H]1[C@@H](OC(C)=O)[C@@]13O[C@](O)(C[C@H]2OC(C)=O)C(=C)C[C@@H]1OC(=O)[C@@H]3C
inactive: all assays above

Source: ChEMBL document CHEMBL1158013, “Absolute structures of new briarane diterpenoids from junceella fragilis” (J Nat Prod, 1999)
